“And” between values parts separate entries of the source, which are not always exact repeats. Equal values may be shown once.
Columns and labels:
[1] = molar heat capacity at constant pressure; settings: 101.33 kPa, Crystal, Flow calorimetry
[2] = molar enthalpy of vaporization or sublimation; settings: 298.15 K; Crystal; Torsion-effucion
[3] = molar enthalpy of transition or fusion; settings: DSC
[4] = Molar enthalpy of transition or fusion; settings: Crystal; DSC

O=C(O)c1cc(Br)cc(Br)c1 [3,5-dibromobenzoic acid]
Settings | Normal melting temperature [°C] | molar heat capacity at constant pressure
Crystal, DTA | 218.1 | –
[1], 288.2 K | – | 215.7 J/K/mol and 215.8 J/K/mol
[1], 290.2 K | – | 217.3 J/K/mol and 217.5 J/K/mol and 217.4 J/K/mol
[1], 292.2 K | – | 219.2 J/K/mol and 219.3 J/K/mol and 219.4 J/K/mol
[1], 294.2 K | – | 220.3 J/K/mol and 220.4 J/K/mol
[1], 296.2 K | – | 221.6 J/K/mol and 221.5 J/K/mol
[1], 298.2 K | – | 223.2 J/K/mol and 223.1 J/K/mol and 223 J/K/mol
[1], 300.2 K | – | 224.5 J/K/mol and 224.9 J/K/mol and 224.7 J/K/mol
[1], 302.2 K | – | 225.8 J/K/mol and 225.7 J/K/mol
[1], 304.2 K | – | 227.2 J/K/mol and 227.1 J/K/mol and 227 J/K/mol
[1], 306.2 K | – | 228.4 J/K/mol and 228.3 J/K/mol
[1], 308.2 K | – | 229.6 J/K/mol and 229.8 J/K/mol and 229.9 J/K/mol
[1], 310.2 K | – | 231.5 J/K/mol and 231.6 J/K/mol
[1], 312.2 K | – | 232.5 J/K/mol and 232.3 J/K/mol and 232.4 J/K/mol
[1], 314.2 K | – | 234.1 J/K/mol and 233.9 J/K/mol and 234 J/K/mol
[1], 316.2 K | – | 235.2 J/K/mol and 235.3 J/K/mol
[1], 318.2 K | – | 236.9 J/K/mol and 236.7 J/K/mol and 237 J/K/mol
[1], 320.2 K | – | 238.5 J/K/mol and 238.4 J/K/mol
[1], 322.2 K | – | 239 J/K/mol and 239.2 J/K/mol
[1], 324.2 K | – | 240.7 J/K/mol and 240.6 J/K/mol and 240.5 J/K/mol
[1], 326.2 K | – | 242.5 J/K/mol and 242.4 J/K/mol

Settings | Molar enthalpy of transition or fusion [kcal/mol] | molar enthalpy [kcal/mol]
[2] | – | 28.8
[4] | 20.2 | –

Settings | molar enthalpy of transition or fusion | vapor or sublimation pressure
355.2 K, Crystal, Torsion effusion method | – | 1.9e-05 kPa
358 K, Crystal, Torsion effusion method | – | 2.8e-05 kPa
359 K, Crystal, Torsion effusion method | – | 2.8e-05 kPa
360.5 K, Crystal, Torsion effusion method | – | 3.8e-05 kPa
362.5 K, Crystal, Torsion effusion method | – | 4.7e-05 kPa
363.8 K, Crystal, Torsion effusion method | – | 4.7e-05 kPa
365.2 K, Crystal, Torsion effusion method | – | 5.7e-05 kPa
365.6 K, Crystal, Torsion effusion method | – | 5.7e-05 kPa
366.4 K, Crystal, Torsion effusion method | – | 6.6e-05 kPa
366.8 K, Crystal, Torsion effusion method | – | 7.6e-05 kPa
369.2 K, Crystal, Torsion effusion method | – | 9.5e-05 kPa
371 K, Crystal, Torsion effusion method | – | 0.000114 kPa
371.2 K, Crystal, Torsion effusion method | – | 0.000114 kPa
371.3 K, Crystal, Torsion effusion method | – | 0.000114 kPa
372.5 K, Crystal, Torsion effusion method | – | 0.000133 kPa
373 K, Crystal, Torsion effusion method | – | 0.000133 kPa
373.7 K, Crystal, Torsion effusion method | – | 0.000133 kPa
374 K, Crystal, Torsion effusion method | – | 0.000152 kPa
375.6 K, Crystal, Torsion effusion method | – | 0.000189 kPa
376 K, Crystal, Torsion effusion method | – | 0.000189 kPa
377 K, Crystal, Torsion effusion method | – | 0.000208 kPa
377.9 K, Crystal, Torsion effusion method | – | 0.000227 kPa
378.2 K, Crystal, Torsion effusion method | – | 0.000208 kPa
380.2 K, Crystal, Torsion effusion method | – | 0.000284 kPa
380.4 K, Crystal, Torsion effusion method | – | 0.000284 kPa
381.3 K, Crystal, Torsion effusion method | – | 0.000303 kPa
381.5 K, Crystal, Torsion effusion method | – | 0.000303 kPa
383.2 K, Crystal, Torsion effusion method | – | 0.000398 kPa
383.7 K, Crystal, Torsion effusion method | – | 0.000398 kPa
384.1 K, Crystal, Torsion effusion method | – | 0.000379 kPa
384.3 K, Crystal, Torsion effusion method | – | 0.000436 kPa
386.3 K, Crystal, Torsion effusion method | – | 0.000474 kPa
386.6 K, Crystal, Torsion effusion method | – | 0.000531 kPa
386.9 K, Crystal, Torsion effusion method | – | 0.000531 kPa
387.7 K, Crystal, Torsion effusion method | – | 0.000531 kPa
389.8 K, Crystal, Torsion effusion method | – | 0.000758 kPa
390.1 K, Crystal, Torsion effusion method | – | 0.00072 kPa
390.8 K, Crystal, Torsion effusion method | – | 0.000796 kPa
391.1 K, Crystal, Torsion effusion method | – | 0.000739 kPa
393.1 K, Crystal, Torsion effusion method | – | 0.000947 kPa
393.7 K, Crystal, Torsion effusion method | – | 0.000947 kPa
394 K, Crystal, Torsion effusion method | – | 0.001004 kPa
395.6 K, Crystal, Torsion effusion method | – | 0.001213 kPa
395.9 K, Crystal, Torsion effusion method | – | 0.001175 kPa
500.1 K, Liquid, isothermal thermogravimetric | – | 1.128 kPa
500.1 K, Liquid, non-isothermal thermogravimetric | – | 1.173 kPa
500.7 K, Liquid, non-isothermal thermogravimetric | – | 1.118 kPa
501.1 K, Liquid, isothermal thermogravimetric | – | 1.191 kPa
501.1 K, Liquid, non-isothermal thermogravimetric | – | 1.135 kPa
501.3 K, Liquid, non-isothermal thermogravimetric | – | 1.141 kPa
501.6 K, Liquid, isothermal thermogravimetric | – | 1.21 kPa
502.2 K, Liquid, isothermal thermogravimetric | – | 1.21 kPa
504 K, Liquid, non-isothermal thermogravimetric | – | 1.377 kPa
504.6 K, Liquid, isothermal thermogravimetric | – | 1.376 kPa
504.9 K, Liquid, non-isothermal thermogravimetric | – | 1.33 kPa
505.1 K, Liquid, isothermal thermogravimetric | – | 1.405 kPa
505.2 K, Liquid, non-isothermal thermogravimetric | – | 1.358 kPa
505.4 K, Liquid, isothermal thermogravimetric | – | 1.401 kPa
505.6 K, Liquid, non-isothermal thermogravimetric | – | 1.401 kPa
506.3 K, Liquid, isothermal thermogravimetric | – | 1.426 kPa
508.2 K, Liquid, non-isothermal thermogravimetric | – | 1.617 kPa
508.8 K, Liquid, isothermal thermogravimetric | – | 1.646 kPa
508.9 K, Liquid, isothermal thermogravimetric | – | 1.615 kPa
509 K, Liquid, non-isothermal thermogravimetric | – | 1.592 kPa and 1.624 kPa
509.2 K, Liquid, isothermal thermogravimetric | – | 1.652 kPa
509.4 K, Liquid, non-isothermal thermogravimetric | – | 1.653 kPa
510.3 K, Liquid, isothermal thermogravimetric | – | 1.637 kPa
512.3 K, Liquid, non-isothermal thermogravimetric | – | 1.893 kPa
512.9 K, Liquid, isothermal thermogravimetric | – | 1.908 kPa
513 K, Liquid, isothermal thermogravimetric | – | 1.9 kPa
513.1 K, Liquid, isothermal thermogravimetric | – | 1.909 kPa
513.1 K, Liquid, non-isothermal thermogravimetric | – | 1.85 kPa
513.3 K, Liquid, non-isothermal thermogravimetric | – | 1.802 kPa
513.5 K, Liquid, non-isothermal thermogravimetric | – | 1.882 kPa
514.4 K, Liquid, isothermal thermogravimetric | – | 1.98 kPa
516.3 K, Liquid, non-isothermal thermogravimetric | – | 2.222 kPa
516.7 K, Liquid, isothermal thermogravimetric | – | 2.189 kPa
517 K, Liquid, isothermal thermogravimetric | – | 2.217 kPa
517.1 K, Liquid, isothermal thermogravimetric | – | 2.176 kPa
517.1 K, Liquid, non-isothermal thermogravimetric | – | 2.15 kPa and 2.187 kPa
517.5 K, Liquid, non-isothermal thermogravimetric | – | 2.228 kPa
518.2 K, Liquid, isothermal thermogravimetric | – | 2.223 kPa
520.1 K, Liquid, non-isothermal thermogravimetric | – | 2.546 kPa
520.6 K, Liquid, isothermal thermogravimetric | – | 2.505 kPa
520.9 K, Liquid, isothermal thermogravimetric | – | 2.553 kPa
521 K, Liquid, non-isothermal thermogravimetric | – | 2.478 kPa
521.2 K, Liquid, isothermal thermogravimetric | – | 2.586 kPa
521.2 K, Liquid, non-isothermal thermogravimetric | – | 2.518 kPa
521.4 K, Liquid, non-isothermal thermogravimetric | – | 2.57 kPa
522.5 K, Liquid, isothermal thermogravimetric | – | 2.612 kPa
524.2 K, Liquid, non-isothermal thermogravimetric | – | 2.862 kPa
525 K, Liquid, isothermal thermogravimetric | – | 2.943 kPa and 2.941 kPa
525.2 K, Liquid, non-isothermal thermogravimetric | – | 2.789 kPa
525.4 K, Liquid, isothermal thermogravimetric | – | 2.995 kPa
525.4 K, Liquid, non-isothermal thermogravimetric | – | 2.858 kPa
525.5 K, Liquid, non-isothermal thermogravimetric | – | 2.884 kPa
526.3 K, Liquid, isothermal thermogravimetric | – | 3.009 kPa
528.1 K, Liquid, non-isothermal thermogravimetric | – | 3.325 kPa
528.9 K, Liquid, non-isothermal thermogravimetric | – | 3.233 kPa and 3.297 kPa
529.2 K, Liquid, non-isothermal thermogravimetric | – | 3.322 kPa
[3], 298.15 K, Crystal | 28.8 kcal/mol | –
[3], 491.2 K, Crystal | 20.2 kcal/mol and 27.4 kcal/mol | –
[3], 491.2 K, Liquid | 7.03 kcal/mol | –

— the NIST ThermoML archive (doi:10.1016/j.fluid.2012.11.006)
